Results as given in patent US20090149482A1, “STEREOCHEMICALLY DEFINED DIPEPTIDE ESTERS OF ANTIVIRAL AGENTS FOR ENHANCED OCULAR TREATMENT” (priority 2001, published 2009).
Like-named read-outs stand apart in the source and are kept apart here.

Assays:
[1] = Plasma pharmacokinetics of stereoisomeric prodrugs following oral administration in rats
[2] = tested on: HSV-1 strain McKrae; experiment: HSV-1 epithelial keratitis rabbit model, topical treatment, SLE scores; type: in vivo
Description: The rabbit eye is an excellent model to study acute HSV-1 epithelial keratitis. Also, spontaneous and induced ocular HSV-1 shedding and corneal epithelial disease in rabbits has been used as a model of human ocular HSV-1 reactivation and recurrence. HSV-1 strain McKrae was used in studies for epithelial keratitis. HSV-1 strain RE was used for studies of HSV stromal keratitis.
i) Epithelial Keratitis: A group of ten rabbits was used to study each compound. Both eyes of all rabbits were used. An aqueous vehicle (like a placebo) and one positive control were obtained using 1% TFT (Viroptic®). Each compound at 1% concentration (TFT=33 mM, Gly-Gly-ACV=26.6 mM, Val-Val-ACV=18.6 mM) were applied (50 μl) topically 5 times per day every two hours starting at 8:00 a.m. and ending at 4:00 p.m. The treatment began on the 3rd post-inoculation day and continued for 5 consecutive days. Slit-lamp examinations were performed once every day for 8 days and thereafter once every other day until lesions resolved.

[3] = for first order hydrolytic rate constant k: 37° C.
[4] = tested on: rabbit corneal cell line (SIRC); conditions: SIRC cells
[5] = tested on: Caco-2 cell suspension; conditions: Caco-2 cell suspension
[6] = plasma analyte following oral administration of LDACV in rats

With `CC(C)[C@@H](N)C(=O)OCCOCn1cnc2c(=O)[nH]c(N)nc21` [DACV] the AUC [1, 6] was 261.89 ± 23.64 µM·min, the Cmax [1, 6] was 8.68 ± 1.24 µM and the Tmax [1, 6] was 15 min.
With `CC(C)C(N)C(=O)NC(C(=O)OCCOCn1cnc2c(=O)[nH]c(N)nc21)C(C)C` [DLACV, D-valine-L-valine-acyclovir] the “concentrations in the systemic circulation” value ([1]; oral administration in rats) was “Very little concentrations were observed”.
In the case of `NCC(=O)NCC(=O)OCCOCn1cnc2c(=O)[nH]c(N)nc21` [Gly-Gly-ACV], the “efficacy relative to TFT (SLE scores)” value [2] is reported as “more effective than TFT”, the “Concentration required to achieve an SLE Score of 0.3” value ([2]; 14 days post-inoculation, 1% topical 5 times per day) is reported as 26.6 mM and the “stability as an ophthalmic solution” value ([3]; pH 5.6, concluded from rate constants) is reported as “stable for two years”. The “first order hydrolytic rate constant k” value ([3]; pH 7.4) was 6.75 k × 10^3 min^−1, the “first order hydrolytic rate constant k” value ([3]; pH 9.0) was 14.85 k × 10^3 min^−1 and the percent survival ([4]; 0.25 mM) was 104.6%. For the same compound, the percent survival ([4]; 0.5 mM) was 94.7%, the percent survival ([4]; 1 mM) was 90.1% and the percent survival ([4]; 2 mM) was 86.2%. The percent survival ([4]; 5 mM) was 63.8%, the percent survival ([4]; 10 mM) was 49.32% and the “intact drug after incubation with the cell suspension” value [5] was “no intact drug detected within one minute”.
